Laboratory results as given in paper PMC10771423 (Applied Microbiology and Biotechnology, 2024).

Tests used:
AldOTf [1] = target: T1, AldOTf (Thermopolyspora flexuosa, UniProt A0A543IX60); experiment: oxygen consumption (oxygen electrode), steady-state kinetics; type: biochemical; details: read-out: KM (mM) / Glycerol^b; 50 mM KPi pH 7.5, 25 °C, O2 as co-substrate
T1 construct: gene FHX40_1862
Text: oxygen consumption (oxygen electrode), steady-state kinetics on AldOTf

AldOTf [2] = target: T1, AldOTf; experiment: HRP-coupled AAP/DCHBS H2O2 assay, […] nm, steady-state kinetics; type: biochemical; details: read-out: KM (mM) / Xylitol^a; 50 mM KPi pH 7.5, 25 °C, O2 as co-substrate

T1 sequence (A0A543IX60 entry or part of it): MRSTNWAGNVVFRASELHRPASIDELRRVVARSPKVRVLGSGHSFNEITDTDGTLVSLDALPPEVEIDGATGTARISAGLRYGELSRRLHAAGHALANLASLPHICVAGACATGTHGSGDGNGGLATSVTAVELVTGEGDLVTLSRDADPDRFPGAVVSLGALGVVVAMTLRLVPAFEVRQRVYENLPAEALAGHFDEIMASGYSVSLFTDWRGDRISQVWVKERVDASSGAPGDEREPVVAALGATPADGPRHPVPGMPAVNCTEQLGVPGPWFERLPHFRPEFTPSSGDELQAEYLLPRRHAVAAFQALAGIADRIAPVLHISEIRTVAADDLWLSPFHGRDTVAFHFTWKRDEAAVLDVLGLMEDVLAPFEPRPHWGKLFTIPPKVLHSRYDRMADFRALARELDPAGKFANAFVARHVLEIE

Structure (SMILES): OCC(O)CO [glycerol]
- Km (AldOTf [1]): 41 mM

Structure (SMILES): OC[C@@H](O)[C@H](O)[C@@H](O)CO [xylitol]
- Km (AldOTf [2]): 0.04 mM
